Values after ≈ are worked out from the molar mass of the structure shown. One block for each compound: values may come before it.
Tests used:
S. aureus ATCC 25923 = system: S. aureus ATCC 25923; set-up: key: R: resistance; S: sensitive; I: intermediate; conditions: Table 2; cited from earlier work
S. aureus AR215 = system: S. aureus AR215; set-up: key to Antibiotic susceptibility (R/S/I): R: resistance; S: sensitive; I: intermediate; conditions: S. aureus AR215 (CDC strain), cited from earlier work; for Antibiotic susceptibility (R/S/I): Table 2
S. aureus AR217 = system: S. aureus AR217; set-up: key to Antibiotic susceptibility (R/S/I): R: resistance; S: sensitive; I: intermediate; conditions: S. aureus AR217 (CDC strain), cited from earlier work; for Antibiotic susceptibility (R/S/I): Table 2
S. aureus AR222 = system: S. aureus AR222; set-up: key to Antibiotic susceptibility (R/S/I): R: resistance; S: sensitive; I: intermediate; conditions: S. aureus AR222 (CDC strain), cited from earlier work; for Antibiotic susceptibility (R/S/I): Table 2
S. aureus ATCC25923 = experiment: S. aureus MIC80 determination, broth microdilution (CLSI) in CAMHB; format: cell-based; conditions: Staphylococcus aureus, ATCC25923; Table 1; S. aureus ATCC 25923; growth inhibition ≥80% vs vehicle, 16-24 h; read-out: ATCC 25923 MIC80
Method: S. Aureus MIC80 determinations in S. aureus ATCC25923 or in multidrug-resistant strains AR215, AR217 and AR255. MIC80's were determined by the broth microdilution method recommended by the Clinical and Laboratory Standards Institute (CLSI) in Cation-adjusted Mueller-Hinton broth (CAMHB). (Cao et al., 2018). In the preliminary screening, three compound concentrations were used: 5.8, 20.4, and 71.4 μM; for quantitative MIC80 measurements, a 1.5-fold dilution series of the compounds was prepared in CAMHB. Overnight bacterial culture was added to the diluted compounds in a 96-well plate after adjusting the bacterial concentration to achieve a 5×10^5 CFU/mL final concentration. After 16-24 h incubation at 35±2° C., the plates were read at 600 nm in a microplate reader. The MIC80 was defined as the concentration of an antibacterial agent that inhibited bacteria growth ≥80% compared to vehicle-treated control cultures. All values were determined at least twice independently, and the average number is reported.

MIC80 (S. aureus ATCC25923): 29.6 µM (≈ 10.8 µg/mL)
Compound: Cc1cc(Cl)cc2sc(N(CC3CCNC3)C(=O)C3CCC3)nc12 (stereo not shown) [Example 40, N-(6-chloro-4-methyl-1,3-benzothiazol-2-yl)-N-[(pyrrolidin-3-yl)methyl]cyclobutanecarboxamide]

MIC80 (S. aureus ATCC25923): 19.8 µM (≈ 7.48 µg/mL)
Compound: Cc1cc(Cl)cc2sc(N(C[C@H]3CC[C@H](N)CC3)C(=O)C3CC3)nc12 [Example 45, N-(6-chloro-4-methyl-1,3-benzothiazol-2-yl)-N-{[(1r,4r)-4-aminocyclohexyl]methyl}cyclopropanecarboxamide]

MIC80 (S. aureus ATCC25923): 2.6 µM (≈ 1.04 µg/mL)
Compound: Cc1cc(Cl)cc2sc(N(CCCn3ccnc3)C(=O)c3ccoc3)nc12 [Example 7, N-(3-(1H-imidazol-1-yl)propyl)-N-(6-chloro-4-methylbenzo[d]thiazol-2-yl)furan-3-carboxamide]

MIC80 (S. aureus ATCC25923): 8.8 µM (≈ 3.62 µg/mL)
Compound: Cc1cc(Cl)cc2sc(N(CCCn3ccnc3)C(=O)c3ccccn3)nc12 [Example 5, N-(3-(1H-imidazol-1-yl)propyl)-N-(6-chloro-4-methylbenzo[d]thiazol-2-yl)picolinamide]

MIC80 (S. aureus ATCC25923): 3.9 µM (≈ 1.67 µg/mL)
Compound: Cc1cc(C(=O)N(CCCn2ccnc2)c2nc3c(C)cc(Cl)cc3s2)oc1C [Example 16, N-(3-(1H-imidazol-1-yl)propyl)-N-(6-chloro-4-methylbenzo[d]thiazol-2-yl)-4,5-dimethylfuran-2-carboxamide]

MIC80 (S. aureus ATCC25923): 2.7 µM (≈ 1.02 µg/mL)
Compound: Cc1cc(Cl)cc2sc(N(CCCn3ccnc3)C(=O)C(C)C)nc12 [Example 11, N-(3-(1H-imidazol-1-yl)propyl)-N-(6-chloro-4-methylbenzo[d]thiazol-2-yl)isobutyramide]

MIC80 (S. aureus ATCC25923): 3.9 µM (≈ 1.57 µg/mL)
Compound: Cc1cc(Cl)cc2sc(N(CCCn3ccnc3)C(=O)C3CCCC3)nc12 [Example 8, N-(3-(1H-imidazol-1-yl)propyl)-N-(6-chloro-4-methylbenzo[d]thiazol-2-yl)cyclopentanecarboxamide]

MIC80 (S. aureus ATCC25923): 2.6 µM (≈ 1.01 µg/mL)
Compound: Cc1cc(Cl)cc2sc(N(CCCn3ccnc3)C(=O)C3CCC3)nc12 [Example 17, N-(3-(1H-imidazol-1-yl)propyl)-N-(6-chloro-4-methylbenzo[d]thiazol-2-yl)cyclobutanecarboxamide]

MIC80 (S. aureus ATCC25923): > 100 µM
Compound: NCc1cccc2sc(N(CCCn3ccnc3)C(=O)C3CC3)nc12 [Example 48, N-[4-(aminomethyl)-1,3-benzothiazol-2-yl]-N-[3-(1H-imidazol-1-yl)propyl]cyclopropanecarboxamide]

MIC80 (S. aureus ATCC25923): 100 µM (≈ 37.8 µg/mL)
Compound: Cc1cc(Cl)cc2sc(N(CCC3CCNCC3)C(=O)C3CC3)nc12 [Example 43, N-(6-chloro-4-methyl-1,3-benzothiazol-2-yl)-N-[2-(piperidin-4-yl)ethyl]cyclopropanecarboxamide]

MIC80 (S. aureus ATCC25923): 14.8 µM (≈ 8.2 µg/mL)
Compound: Cc1cc(Cl)cc2sc(N(CCCn3ccnc3)C(=O)[C@H](Cc3ccccc3)NC(=O)OC(C)(C)C)nc12 [Example 21, (S)-tert-butyl (1-((3-(1H-imidazol-1-yl)propyl)(6-chloro-4-methylbenzo[d]thiazol-2-yl)amino)-1-oxo-3-phenylpropan-2-yl)carbamate]

MIC80 (S. aureus ATCC25923): > 100 µM
Compound: Cc1nc(Cl)cc2sc(N(CCCn3ccnc3)C(=O)c3ccco3)nc12 [Example 54, N-{6-chloro-4-methyl-[1,3]thiazolo[4,5-c]pyridin-2-yl}-N-[3-(1H-imidazol-1-yl)propyl]furan-2-carboxamide]

MIC80 (S. aureus ATCC25923): 66.7 µM (≈ 18.8 µg/mL)
Compound: Cc1cc(Cl)cc2sc(N3CCC(N)CC3)nc12 [Example 33, 1-(6-chloro-4-methyl-1,3-benzothiazol-2-yl)piperidin-4-amine]

MIC80 (S. aureus ATCC25923): 13.2 µM (≈ 5.98 µg/mL)
Compound: Cc1cc(Cl)cc2sc(N(CCCn3ccnc3)S(=O)(=O)C3CCCCC3)nc12 [Example 24, N-(3-(1H-imidazol-1-yl)propyl)-N-(6-chloro-4-methylbenzo[d]thiazol-2-yl)cyclohexanesulfonamide]

The next lines start with the compound.

Compound: Cc1onc(-c2ccccc2)c1C(=O)N[C@@H]1C(=O)N2[C@@H]1SC(C)(C)[C@@H]2C(=O)O [OXA, Oxacillin]
Antibiotic susceptibility (R/S/I) (S. aureus ATCC 25923): S
Resistance of the strain to the antibiotic (S. aureus AR215): resistant
Antibiotic susceptibility (R/S/I) (S. aureus AR215): R
Resistance of the strain to the antibiotic (S. aureus AR217): resistant
Antibiotic susceptibility (R/S/I) (S. aureus AR217): R
Antibiotic susceptibility (R/S/I) (S. aureus AR222): S

Compound: CO[C@@]1(NC(=O)Cc2cccs2)C(=O)N2C(C(=O)O)=C(COC(N)=O)CS[C@@H]21 [FOX, Cefoxitin]
Resistance of the strain to the antibiotic (S. aureus AR215): resistant
Antibiotic susceptibility (R/S/I) (S. aureus AR215): R
Resistance of the strain to the antibiotic (S. aureus AR217): resistant
Antibiotic susceptibility (R/S/I) (S. aureus AR217): R
Antibiotic susceptibility (R/S/I) (S. aureus AR222): S

Compound: Penicillin
Resistance of the strain to the antibiotic (S. aureus AR215): resistant
Antibiotic susceptibility (R/S/I) (S. aureus AR215): R
Resistance of the strain to the antibiotic (S. aureus AR217): resistant
Antibiotic susceptibility (R/S/I) (S. aureus AR217): R
Resistance of the strain to the antibiotic (S. aureus AR222): resistant
Antibiotic susceptibility (R/S/I) (S. aureus AR222): R

Compound: CC[C@H]1OC(=O)[C@H](C)[C@@H](O[C@H]2C[C@@](C)(OC)[C@@H](O)[C@H](C)O2)[C@H](C)[C@@H](O[C@@H]2O[C@H](C)C[C@H](N(C)C)[C@H]2O)[C@](C)(O)C[C@@H](C)C(=O)[C@H](C)[C@@H](O)[C@]1(C)O [ERY, Erythromycin]
Antibiotic susceptibility (R/S/I) (S. aureus ATCC 25923): S
Resistance of the strain to the antibiotic (S. aureus AR215): resistant
Antibiotic susceptibility (R/S/I) (S. aureus AR215): R
Antibiotic susceptibility (R/S/I) (S. aureus AR217): S
Antibiotic susceptibility (R/S/I) (S. aureus AR222): S

Compound: CO[C@H]1/C=C/O[C@@]2(C)Oc3c(C)c(O)c4c(O)c(c(/C=N/N5CCN(C)CC5)c(O)c4c3C2=O)NC(=O)/C(C)=C\C=C\[C@H](C)[C@H](O)[C@@H](C)[C@@H](O)[C@@H](C)[C@H](OC(C)=O)[C@@H]1C [RIF, Rifampin]
Antibiotic susceptibility (R/S/I) (S. aureus ATCC 25923): S
Antibiotic susceptibility (R/S/I) (S. aureus AR215): S
Antibiotic susceptibility (R/S/I) (S. aureus AR217): S
Antibiotic susceptibility (R/S/I) (S. aureus AR222): I

Compound: Cc1cc(Cl)cc2sc(N(CCCn3ccnc3)C(=O)c3ccc[nH]3)nc12 [Example 19, N-(3-(1H-imidazol-1-yl)propyl)-N-(6-chloro-4-methylbenzo[d]thiazol-2-yl)-1H-pyrrole-2-carboxamide]
MIC80 (S. aureus ATCC25923): 1.3 µM (≈ 0.52 µg/mL)

Compound: Cc1nc(Cl)cc2sc(N(CCCn3ccnc3)C(=O)C3CC3)nc12 [Example 55, N-{6-chloro-4-methyl-[1,3]thiazolo[4,5-c]pyridin-2-yl}-N-[3-(1H-imidazol-1-yl)propyl]cyclopropanecarboxamide]
MIC80 (S. aureus ATCC25923): 100 µM (≈ 37.6 µg/mL)

Compound: Cc1cc(Cl)cc2sc(N(CC3CCNCC3)C(=O)C3CC3)nc12 [Example 39]
MIC80 (S. aureus ATCC25923): 19.8 µM (≈ 7.21 µg/mL)

Compound: Cc1cc(Cl)cc2sc(N(CCCn3ccnc3)C(=O)C(C)N)nc12 (stereo not shown) [Example 60]
MIC80 (S. aureus ATCC25923): > 100 µM

Compound: CSCc1ccc(C(=O)N(CCCn2ccnc2)c2nc3c(C)cc(Cl)cc3s2)o1 [Example 20, N-(3-(1H-imidazol-1-yl)propyl)-N-(6-chloro-4-methylbenzo[d]thiazol-2-yl)-5-((methylthio)methyl)furan-2-carboxamide]
MIC80 (S. aureus ATCC25923): 2.9 µM (≈ 1.34 µg/mL)

Compound: Cc1cc(Cl)cc2sc(N3CCC(CN)CC3)nc12 [Example 34]
MIC80 (S. aureus ATCC25923): 44.4 µM (≈ 13.1 µg/mL)

Compound: Cc1cc(Cl)cc2sc(N(CC3CCNCC3)C(=O)C3CCC3)nc12 [Example 37, N-(6-chloro-4-methylbenzo[d]thiazol-2-yl)-N-(piperidin-4-ylmethyl)cyclobutanecarboxamide]
MIC80 (S. aureus ATCC25923): 19.8 µM (≈ 7.48 µg/mL)

Compound: O=C(c1ccco1)N(CCCn1ccnc1)c1nc2ccc(Cl)nc2s1 [Example 52, N-{5-chloro-[1,3]thiazolo[5,4-b]pyridin-2-yl}-N-[3-(1H-imidazol-1-yl)propyl]furan-2-carboxamide]
MIC80 (S. aureus ATCC25923): > 100 µM

Compound: Cc1cc(Cl)cc2sc(NCCCn3ccnc3)nc12 [Example 1, N-(3-(1H-imidazol-1-yl)propyl)-6-chloro-4-methylbenzo[d]thiazol-2-amine]
MIC80 (S. aureus ATCC25923): 19.8 µM (≈ 6.08 µg/mL)

Compound: Cc1cc(Cl)cc2sc(N(CCCn3ccnc3)CCCn3ccnc3)nc12 [Example 28, N,N-bis(3-(1H-imidazol-1-yl)propyl)-6-chloro-4-methylbenzo[d]thiazol-2-amine]
MIC80 (S. aureus ATCC25923): 5.9 µM (≈ 2.45 µg/mL)

Compound: Cc1cc(Cl)cc2sc(N(CC3CCNC3)C(=O)C3CC3)nc12 (stereo not shown) [Example 41, N-(6-chloro-4-methylbenzo[d]thiazol-2-yl)-N-(pyrrolidin-3-ylmethyl)cyclopropanecarboxamide]
MIC80 (S. aureus ATCC25923): 44.4 µM (≈ 15.5 µg/mL)

Compound: CCCCCCCCCC(=O)N[C@@H](Cc1c[nH]c2ccccc12)C(=O)N[C@H](CC(N)=O)C(=O)N[C@@H](CC(=O)O)C(=O)N[C@@H]1C(=O)NCC(=O)N[C@@H](CCCN)C(=O)N[C@@H](CC(=O)O)C(=O)N[C@H](C)C(=O)N[C@@H](CC(=O)O)C(=O)NCC(=O)N[C@H](CO)C(=O)N[C@@H]([C@H](C)CC(=O)O)C(=O)N[C@@H](CC(=O)c2ccccc2N)C(=O)O[C@@H]1C [DAP, Daptomycin]
Antibiotic susceptibility (R/S/I) (S. aureus ATCC 25923): S
Antibiotic susceptibility (R/S/I) (S. aureus AR222): S

Compound: Cc1ccc(C(=O)N(CCCn2ccnc2)c2nc3c(C)cc(Cl)cc3s2)s1 [Example 9, N-(3-(1H-imidazol-1-yl)propyl)-N-(6-chloro-4-methylbenzo[d]thiazol-2-yl)-5-methylthiophene-2-carboxamide]
MIC80 (S. aureus ATCC25923): 2.6 µM (≈ 1.12 µg/mL)

Compound: Cc1cc(Cl)cc2sc(NC(=O)C3CC3)nc12 [Example 61]
MIC80 (S. aureus ATCC25923): > 100 µM
